From patent US7220764B2, “Sphingosine kinase inhibitors” (The Pennsylvania State University Research Foundation, priority 2002, dated 2007)
Where a name gives a salt, the structure may show the parent alone. Read-outs that look alike come from different tables or passages of the source.

Experiments:
[1] = test system: MCF-7/VP cells (MRP 1 overexpression); experiment: Cytotoxicity, SRB binding assay, MCF-7/VP; format: cell-based; settings: Homo sapiens, MCF7-VP, 48 h treatment, mean ± SD
Protocol: (§1) The SK inhibitor compounds of the invention are antiproliferative and induce apoptosis in replicating cells. In order to assess the compounds' efficacy in intact cells, the compounds were evaluated for cytotoxicity using a panel of human cancer cell lines. These experiments followed methods that have been extensively used (see for, example, Smith et al., Cancer Res. 54: 3779–3784 (1994); Smith et al., Oncology Res. 6: 211–218 (1994); and Lawrence et al., J. Med. Chem. 44: 594–601 (2001). Cell lines tested included T-24 human bladder carcinoma cells, MCF-7 human breast adenocarcinoma cells, MCF-7/VP cells, which are a subline of MCF-7 cells that is resistant to several anticancer drugs due to overexpression of the transport protein MRP 1, and NCI/ADR, a cell line resistant to many anticancer drugs due to overexpression of the drug transporter P-glycoprotein.
(§2) The indicated cell lines were treated with varying doses of compounds 1–4 for 48 h. Cell survival was then determined using the SRB binding assay (Skehan et al., 1990, J. Natl. Cancer Inst. 82: 1107–1112), and the concentration of compound that inhibited proliferation by 50% was calculated. Values represent the mean ±SD for replicate samples.
(§3) As these transporters are often overexpressed in tumor cells, particularly after the patient has been treated with cytotoxic drugs, the SK inhibiting compounds of the invention are effective therapeutic agents for resistant tumors.

[2] = molecular target: PKCα (Homo sapiens, UniProt P17252); experiment: Kinase selectivity panel: PKCα; format: biochemical; settings: for IC50: human isoform, mean ± SD of triplicate experiments, read-out: PKCα, concentration required to inhibit enzyme activity by 50%
Protocol: (§4) Thus potencies of each inhibitor were determined for human isoforms of ERK2, PI3K and PKCα. SK inhibition data is provided for comparison. Data represent the concentrations required to inhibit enzyme activity by 50%, and are the mean ±SD of triplicate experiments. Results designated as “None” indicate that no inhibition was detected at concentrations up to 60 μM.

[3] = molecular target: T1, recombinant human SK (Homo sapiens, UniProt Q9NYA1); experiment: Sphingosine kinase screen / inhibition of recombinant human SK ([3H]sphingosine to [3H]S1P); format: biochemical; settings: for IC50: mean ± SD of triplicate experiments, read-out: SK, concentration required to inhibit enzyme activity by 50%; for inhibition at 5 µg/mL: read-out: inhibited SK activity by %
T1 construct: glutathione-S-transferase (GST); made in house; host or cells: bacteria (PGEX bacterial expression vector, Pharmacia)
Protocol: This method involved incubating [^3H]sphingosine with 1 mM ATP under conditions defined in the reference, followed by extraction of the assay mixture with chloroform:methanol (2:1) under basic conditions. […] Radioactivity in aliquots of the aqueous phase was then quantified as a measure of [^3H]S1P formation.
Varying concentrations of the indicated compounds were evaluated for inhibition of recombinant human SK as described above.

[4] = test system: NCI/ADR cells (P-glycoprotein overexpression); experiment: Cytotoxicity, SRB binding assay, NCI/ADR; format: cell-based; settings: Homo sapiens, NCI/ADR-RES, 48 h treatment, mean ± SD
Protocol: as §1, §2, §3

[5] = molecular target: T2, PI3K; experiment: Kinase selectivity panel: PI3K (lipid kinase); format: biochemical, human; settings: for IC50: human isoform, mean ± SD of triplicate experiments, read-out: PI3K, concentration required to inhibit enzyme activity by 50%
T2 construct: other: human isoform; mean ± SD of triplicate experimen; activity toward PI3K (in words)
Protocol: Thus potencies of each inhibitor were determined for human isoforms of ERK2, PI3K and PKCα. […] Data represent the concentrations required to inhibit enzyme activity by 50%, and are the mean ±SD of triplicate experiments. Results designated as “None” indicate that no inhibition was detected at concentrations up to 60 μM.

[6] = test system: T-24 human bladder carcinoma cells; experiment: Cytotoxicity, SRB binding assay, T24; format: cell-based; settings: 48 h treatment, mean ± SD
Protocol: as §1, §2, §3

[7] = molecular target: ERK2 (Homo sapiens, UniProt P28482); experiment: Kinase selectivity panel: ERK2; format: biochemical; settings: for IC50: human isoform, mean ± SD of triplicate experiments, read-out: ERK2, concentration required to inhibit enzyme activity by 50%
Protocol: as §4

[8] = test system: MCF-7 human breast adenocarcinoma cells; experiment: Cytotoxicity, SRB binding assay, MCF-7; format: cell-based; settings: MCF7, 48 h treatment, mean ± SD
Protocol: as §1, §2, §3

[9] = test system: mouse JC mammary adenocarcinoma cells; experiment: Antitumor activity in syngeneic tumor model; format: in vivo, Balb/c mice; settings: 75 mg/kg intraperitoneally on days 1, 5, 9 and 15
Protocol: These cells express elevated levels of SK activity relative to non-transformed cells, as well as the multidrug resistance phenotype due to P-glycoprotein activity (data not shown). Balb/c mice, 6–8 weeks old, were injected subcutaneously with […] suspended in PBS. […] The insert indicates the body weight of the animals during this experiment.

[10] = 5 μg/ml of compound (corresponds to 10–25 μM), 1 mM ATP

T1 sequence (Q9NYA1 whole entry): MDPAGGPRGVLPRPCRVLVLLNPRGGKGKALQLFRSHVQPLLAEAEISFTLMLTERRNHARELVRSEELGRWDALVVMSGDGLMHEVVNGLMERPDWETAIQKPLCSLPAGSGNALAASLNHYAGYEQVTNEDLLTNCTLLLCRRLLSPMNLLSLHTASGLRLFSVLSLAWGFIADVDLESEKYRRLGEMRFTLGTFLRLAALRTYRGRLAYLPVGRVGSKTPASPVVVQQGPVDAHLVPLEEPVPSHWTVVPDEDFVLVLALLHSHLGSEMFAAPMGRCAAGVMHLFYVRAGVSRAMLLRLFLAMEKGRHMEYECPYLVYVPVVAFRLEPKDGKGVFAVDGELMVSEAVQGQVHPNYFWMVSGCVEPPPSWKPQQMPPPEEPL
ERK2, sequence (P28482 whole entry, canonical isoform): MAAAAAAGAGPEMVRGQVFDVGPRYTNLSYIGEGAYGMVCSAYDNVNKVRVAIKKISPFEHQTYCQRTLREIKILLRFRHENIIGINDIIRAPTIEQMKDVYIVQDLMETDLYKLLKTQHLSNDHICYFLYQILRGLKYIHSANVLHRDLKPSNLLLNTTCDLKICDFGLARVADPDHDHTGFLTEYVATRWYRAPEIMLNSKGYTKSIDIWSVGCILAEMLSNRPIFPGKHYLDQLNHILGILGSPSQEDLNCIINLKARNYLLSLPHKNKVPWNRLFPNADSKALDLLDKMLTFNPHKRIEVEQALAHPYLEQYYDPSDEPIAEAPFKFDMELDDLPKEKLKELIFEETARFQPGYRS

IC50 [2] [µM]	IC50 [5] [µM]	IC50 [7] [µM]	inhibition at 5 µg/mL [3, 10] [%]	Structure (SMILES)	IC50 [1] [µM]	IC50 [4] [µM]	IC50 [6] [µM]	IC50 [8] [µM]	also measured
			94	N#C/C(=C\c1ccc(O)c(O)c1)c1nc(-c2ccc3c(c2)OCO3)cs1 [Compound 9, 2-(4-Benzo[1,3]dioxol-5-yl-thiazol-2-yl)-3-(3,4-dihydroxy-phenyl)-acrylonitrile]					
			98	O=C(/C=C(O)/C(O)=C/C(=O)c1ccccc1)c1ccccc1 [Compound 11, 3,4 -Dihydroxy-1,6-diphenyl-hexa-2,4-diene-1,6-dione]					
> 60	> 60	> 60	99	Oc1ccc(Nc2nc(-c3ccc(Cl)cc3)cs2)cc1 [Compound 3, 4-[4-(4-Chloro-phenyl)-thiazol-2-ylamino]-phenol]	0.9 ± 1.8	1.3 ± 1.1	4.6 ± 1.6	1.2 ± 1.3	inhibition of PKCα (in words) [2]: no inhibition was seen; activity toward PI3K (in words) [5]: no inhibition was seen; activity toward ERK2 (in words) [7]: no inhibition was seen
> 60	7 ± 2	40 ± 5	89	O=C1/C(=C/c2ccc(O)c(O)c2)Sc2ccccc21 [Compound 4, 2-(3,4-Dihydroxy-benzylidene)-benzo [b] thiophen-3-one]	1.8 ± 1.1	1.2 ± 2.4	7.8 ± 2	1 ± 1.7	IC50 [3]: 0.6 ± 0.1 µM; activity toward PI3K (in words) [5]: moderate activity; activity toward ERK2 (in words) [7]: weak activity
			91	COc1ccc(-n2c(SCC(=O)Nc3nc4ccccc4s3)nc(O)cc2=O)cc1 [Compound 6, N-Benzothiazol-2-yl-2-[4-hydroxy-1-(4-methoxy-phenyl)-6-oxo-1,6-dihydro-pyrimidin-2-ylsulfanyl]-acetamide]					
				CCc1cc2c(s1)[S][Zn]1([N]=C2)[N]=Cc2cc(CC)sc2[S]1 [Compound 12]					inhibition at 5 µg/mL [3]: 87%
			81	CCOc1ccc2c(c1)NC(C)(C)c1ss/c(=N/c3ccc(O)cc3)c1-2 [Compound 10, 4-(7-Ethoxy-4,4-dimethyl-4,5-dihydro-2,3-dithia-5-aza-cyclopenta [α]naphthalen-1-ylideneamino)-phenol]					
			98	Cc1cc2nc3s/c(=C\c4cc(I)cc(I)c4O)c(=O)n3c2cc1C [Compound 8, 2-(2-Hydroxy-3,5-diiodo-benzylidene)-6,7-dimethyl-benzo[4,5] imidazo [2,1-b] thiazol-3-one]					
			91	O=S(=O)(c1ccc(O)cc1)c1ccc(O)c(C23CC4CC(CC(C4)C2)C3)c1 [Compound 7, 2-(1-adamantyl)-4-[(4-oxidophenyl)sulfonyl]benzenolate disodium salt]					
> 60	42 ± 10	26 ± 2	99	COc1ccc(N2C(=O)/C(=C\c3ccc(O)cc3O)SC2=S)cc1 [Compound 1, 5-(2,4-Dihydroxy-benzylidene)-3-(4-methoxy-phenyl)-2-thioxo-thiazolidin-4-one]	24.6 ± 1.9	6.2 ± 1.5	5.8 ± 1.5	6.8 ± 1.5	IC50 [3]: 2.5 ± 0.7 µM
				CCCCCCCCCCCCC/C=C/[C@@H](O)[C@H](CO)N(C)C [dimethylsphingosine, reference compound]					inhibition of SK activity by positive control ([3]; at concentrations above 25 μM): completely inhibited

Structure (SMILES)	IC50 [2] [µM]	IC50 [5] [µM]	IC50 [7] [µM]	inhibition at 5 µg/mL [3, 10] [%]	IC50 [1] [µM]	IC50 [4] [µM]	IC50 [6] [µM]	IC50 [8] [µM]	also measured
O=C(N/N=C/c1c(O)ccc2ccccc12)c1cc(-c2ccc3ccccc3c2)n[nH]1 [Compound 2, 5-Naphthalen-2-yl-2H-pyrazole-3-carboxylic acid (2-hydroxy-naphthalen-1-ylmethylene)-hydrazide]	> 60	> 60	11 ± 1		2.9 ± 2	0.8 ± 1.3	1.1 ± 1.2	0.4	IC50 [3]: 1.2 ± 0.3 µM; inhibition at 5 µg/mL [3]: 85%; fold less potent toward ERK2 than SK ([7]; ERK2 versus SK): 10 fold
O=C1/C(=C/c2ccc(O)c(O)c2)Oc2ccccc21 [Compound 5, 2-(3,4-Dihydroxy-benzylidene)-benzofuran-3-one]	> 60		80 ± 4						activity toward PI3K (in words) [5]: moderate activity; activity toward ERK2 (in words) [7]: weak activity; difference in body weights versus control group [9]: No significant difference; tumor growth decreased versus control animals ([9]; day 18, volume relative to day 1): > 50%
